Results on five compounds are retold here after patent US9050330B2, “Method, composition and kit for treating frequent headaches” (priority 2012, dated 2015).

The test system of one assay is sphenopalatine ganglion. The settings on record: cited from earlier work; for duration of anesthesia provided to the nerve structure: long-acting local anesthetics in SPGB.
In assay [1] the test system is tension headaches and migraines. Briefly: Earlier treatment of Patient 1 (tension headaches and migraines). Type of assay: in vivo, human. The settings on record: Patient 1, before the composition. The text has this:
This patient was a person who experienced tension headaches and migraines. The pain was acute producing nauseas and vomits.

As for `CCCCN1CCCCC1C(=O)Nc1c(C)cccc1C` (centres unmarked) [bupivacaine], the “duration of anesthesia provided to the nerve structure” value in the assay with sphenopalatine ganglion was “at least about an hour”.

`CCN(CC)CC(=O)Nc1c(C)cccc1C` [lidocaine]: in the assay with sphenopalatine ganglion (shorter-acting local anesthetic in SPGB), the “period for which head pain is decreased (equal to the duration of the analgesia)” value was “less than an hour”.

`Cc1ccccc1C(OCCN(C)C)c1ccccc1` (centres unmarked) [norflex]: the “outcome of earlier treatment” value in assay [1] is reported as “without success”. On to `COc1ccc2cc(CCC(C)=O)ccc2c1` [relafen], for which the “outcome of earlier treatment” value in assay [1] is “without success”. Regarding `CCCN1CCCC[C@H]1C(=O)Nc1c(C)cccc1C` [ropivacaine], in the assay with sphenopalatine ganglion, the “duration of anesthesia provided to the nerve structure” value is given as “at least about an hour”.
